Test results published in patent publication US20220062166A1, “Self-Gelling Solutions for Administration of Therapeutics to the Inner Ear” (Spiral Therapeutics, Inc., priority 2019, published 2022).
“Also recorded” adds a separate entry of the source.

Legend:
caspase 3 = target: T1, caspase 3 (Homo sapiens, UniProt P42574); assay: Caspase 3 activation assay with recombinant proteins; type: biochemical; settings: in %
T1 sequence (P42574 29-277): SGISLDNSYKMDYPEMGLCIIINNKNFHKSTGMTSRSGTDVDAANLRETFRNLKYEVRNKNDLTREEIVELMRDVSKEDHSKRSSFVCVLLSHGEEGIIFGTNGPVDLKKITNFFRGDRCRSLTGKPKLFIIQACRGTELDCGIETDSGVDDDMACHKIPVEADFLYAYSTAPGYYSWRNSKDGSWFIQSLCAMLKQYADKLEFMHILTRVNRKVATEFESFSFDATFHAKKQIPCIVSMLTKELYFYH
Method: The specificity of LPT99 was tested in vitro on Apaf1, caspase 3, and caspase 9 (proteins from the apoptotic cascade), and a broad panel of potential pharmacological targets.
LPT99 inhibited the formation of the apoptosome complex composed by recombinant Apaf1, cyt c, deoxyadenosine triphosphate (dATP), and caspase 9. This activity was measured as inhibition of caspase 3 activation. […] To evaluate the specificity of the inhibition, an assay of caspase 3 and 9 activation was set up with recombinant proteins. The inhibitions of caspase 3 and 9 were 7.6±14.7 and 5.3±3.5, respectively, for LPT99.

[1] = Cochlear and plasma distribution after TT administration in rats (UPLC-ESI/MS/MS); type: in vivo, rat
Text: Cochleae were harvested and rinsed at several timepoints after intratympanic injection of drug product. Drug concentration (y axis) in cochlear homogenates is expressed as nanograms LPT99 per gram of cochlear homogenate.
LPT99 cochlear distribution after TT administration was studied in rats. […] LPT99 concentration was quantified with an ultra-performance liquid chromatography tandem mass spectrometry (UPLC-ESI/MS/MS) system.
Distribution of LPT99 was investigated in cochlea and plasma after a single TT administration in rats. The inhibitor was administered at 50, 100, or 200 μM (dissolved in 5% hydroxypropyl cyclodextrin in physiological serum).

[2] = test system: BALB/c 3T3 mouse fibroblasts; assay: In vitro phototoxicity in BALB/c 3T3 mouse fibroblasts; type: cell-based; settings: ≤100 μM
Method: An in vitro experiment was performed in BALB/c 3T3 mouse fibroblasts to determine the phototoxic potential of LPT99 at concentrations of ≤100 μM in 3T3L1 cells.

[3] = Physical stability of drug product vials; type: physicochemical; settings: vials stored at 4C
Method: Vials of the drug product were stored at either room temperature or 4° C. for a period greater than three months. To test the LPT99 concentration in vials, the liquid drug product was filtered through sterile 0.2 micron filters.

[4] = GLP dermal sensitization main study (Buehler test) in guinea pigs; type: in vivo, guinea pig; settings: 24 or 48 hours after the challenge dose, 797 μM
Method: A GLP-compliant dermal sensitization study was conducted with LPT99 in guinea pigs. The objective was to assess potential dermal sensitization of LPT99 using the Buehler test (Buehler, Arch Dermatol. 1965, 91, 171-7). The test article, LPT99, was in a neutral-pH, buffered, isotonic solution containing a thermoreversible compound. The vehicle control was buffered at neutral pH and formulated as for the test article; it contained POLOXAMER® 407, disodium phosphate dodecahydrate hydrogen, sodium dihydrogen phosphate dihydrate, sodium chloride, and water for injection. The main study consisted of 2 groups of 20 or 10 guinea pigs. Group 1 was 10 male and 10 female guinea pigs dosed with the highest concentration of LPT99, 797 μM, that was used in the dose range-finding substudy (Group 1). Group 2 was 5 male and 5 female animals that were not dosed with LPT99 (Group 2) during the induction phase and served as naïve controls; Group 2 was challenged with LPT99 on Day 28. LPT99 was topically administered to the skin in the shaved scapula area in a volume of 50 μL on Study Days 0, 7, and 14 (induction doses), and on Day 28 (challenge dose). […] The PDII (post-challenge) was calculated for the test article or vehicle by dividing the sum of the Total Irritation Score by the number of observations (e.g., 3 days×6 animals=18 (number of observations).

[5] = GLP auditory safety study in rats after single TT administration; settings: rat, in vivo
Method: The study consisted of 10 groups of rats: 6 groups for toxicology (Groups 1 to 6, 20 males and 20 females per group), and 4 groups for toxicokinetics (Groups 7 to 10, 6 males and 6 females per group).
All animals were assessed weekly for body weights and qualitative food consumption. In addition, otoscopic evaluation of the dosing sites (tympanic membrane, Groups 1 to 6) and ABR testing for hearing function were performed at predosing; and on Days 1, 7, and/or 14. Animals in the toxicology groups (Groups 1 to 6) were sacrificed on Day 1 (10 males and 10 females per group) and Day 14 (the remaining 10 males and 10 females per group). At necropsy, terminal blood samples were tested for hematology, serum chemistry, and coagulation parameters. Gross observations were recorded, and selected organs were weighed. One ear per animal in Groups 1 to 5 was collected and processed for cytocochleogram assessment.

COc1ccc2[nH]cc(CCNC(=O)CC3C(=O)N(CCc4ccc(Cl)cc4Cl)CC(=O)N3CCc3cccs3)c2c1 (stereo not shown) [LPT99, 2-(4-(2,4-dichlorophenethyl)-3,6-dioxo-1-(2-(thiophen-2-yl)ethyl)piperazin-2-yl)-N-(2-(5-methoxy-1H-indol-3-yl)ethyl)acetamide]
inhibition of caspase 3 (caspase 3): 7.6±14.7
detection in administered cochleae ([1]; 0.5 and 1 hour, 50, 100, or 200 μM in 5% hydroxypropyl cyclodextrin): detected in all administered cochleae
LPT99 in plasma (not found; detection limit) ([1]; after TT administration of the LPT99 formulation in a hydrogel): < 2 ng/mL
concentrations in contralateral cochleae and plasma ([1]; all time points, 50, 100, or 200 μM in 5% hydroxypropyl cyclodextrin): BLLQ
LPT99 concentrations in plasma (BLLQ) ([1]; all time-points and doses): < 2 ng/mL
LPT99 concentrations in the contralateral cochleae (BLLQ) ([1]; all time-points and doses): < 3 ng/g
distribution to cochlea after TT administration ([1]; rats, FIG. 4): distributed locally to the cochlea; also recorded: distributed to cochlea in a dose-dependent manner
distribution to contralateral cochleae or plasma ([1]; rats, TT): No distribution to the contralateral cochleae or plasma was observed
cytotoxicity in presence or absence of ultraviolet-visible irradiation [2]: not cytotoxic
time to LPT99 precipitation [3]: approximately 2 months
Draize scores [4]: No Draize scores were >0
hair cell loss (cytocochleogram) [5]: no reliable evidence of test-article-related hair cell loss
otoscopic scores (erythema, edema, wounds) of tympanic membranes [5]: no statistically significant changes
